Experimental data published in patent publication US4820821A, “Novel pyridazinone-imines and their physiologically tolerated addition salts with acids, their preparation and therapeutic agents containing these compounds” (BASF Aktiengesellschaft, priority 1981, dated 1989).
Structures can show the parent of a compound that is named as a salt. Where two headings read alike, the source gives them in different places.

Assays:
[1] = test system: reserpine-induced hypothermia / blood pressure; experiment: Quotient ED 50% antidepressive action / ED 20% hypertensive action; assay type: in vivo, mouse / rat; settings: for Q Increase: Table 2, route of hypertensive test not given;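 for Q Increase: larger quotient means more selective hypertensive action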
Description: This is evident from the fact that the quotient defined above differs wtih respect to the comparative compounds. […] This arises, inter alia, from the fact that the hypertensive ED 20 constitutes the denominator of the quotient. It is possible that the unforeseeable selective direction of action is attributable to the special substitution,in accordance with the invention, at the 4-imino group.

blood pressure = experiment: Effect on the blood pressure: hypertensive action, pithed rat; assay type: in vivo, male Sprague-Dawley rats; settings: for ED20: Rattus norvegicus, dose based on the base, read-out: ED 20% hypertensive action (dose which increases the blood pressure of the pithed rat by 20%); for R.A. (relative activity), hypertensive action: amezinium = 1.00
Experimental: The measurement of the blood pressure in the carotid artery was carried out by means of Statham transducers. The substance was administered in the jugular vein (as an aqueous solution, 1 ml/kg) or intraperitoneally (as a tragacanth suspension, 2 ml/kg). The ED 20% is determined as the dose which increases the blood pressure by 20%.

[2] = test system: reserpine-induced hypothermia; experiment: Antidepressive action: reserpine antagonism, inhibition of reserpine-induced hypothermia of the mouse; assay type: in vivo, male Swiss mice; settings: for ED50: Mus musculus, dose based on the base, read-out: ED 50% (dose which inhibits the reserpine-induced hypothermia of the mouse by 50%); for R.A. (relative activity), reserpine antagonism: amezinium = 1.00, oral
Experimental: Antidepressants effect dose-dependent inhibition of this hypotherma. The test substances are administered orally 60 minutes before the administration of reserpine.
The dose which effects 50% inhibition of the reserpine-induced hypothermia is determined, as the ED 50%, from the linear regression between log dose (mg/kg) and relative reduction in hypothermia (Δ%).

[3] = ip, Table 1, i.p. administration
[4] = Table 1, oral administration 60 min before reserpine
[5] = iv, Table 1, i.v. administration

SMILES | Q (quotient ED 50% antidepressive action/ED 20% hypertensive action) ([1]; hypertensive test i.p.) | ED20 (blood pressure; [3]) [mg/kg] | R.A. (relative activity), hypertensive action (blood pressure; Table 1, i.p. administration) | ED50 [2, 4] [mg/kg] | R.A. (relative activity), reserpine antagonism ([2]; Table 1) | Q (quotient ED 50% antidepressive action/ED 20% hypertensive action) ([1]; hypertensive test i.v.) | ED20 (blood pressure; [5]) [mg/kg] | R.A. (relative activity), hypertensive action (blood pressure; Table 1, i.v. administration) | also measured
CCC(=O)N=c1cnn(-c2ccccc2)c(OC)c1 [Example 50] | 0.06 | 3.16 | 0.12 | 0.18 | 4.07 | – | – | – | –
CCSC(=O)N=c1cnn(-c2ccccc2)c(OC)c1 [Example 73] | < 0.12 | > 10 | < 0.04 | 1.23 | 0.60 | – | – | – | –
COc1cc(OC)cc(C(=O)N=c2cnn(-c3ccccc3)c(OC)c2)c1 [Example 62] | – | – | – | 0.66 | 1.11 | 1.18 | 0.56 | 0.09 | –
C=CCOC(=O)N=c1ccn(-c2ccccc2)nc1 [Example 35] | – | – | – | 0.25 | 2.93 | 2.50 | 0.1 | 0.50 | –
COc1cc(=NC(=O)c2ccccc2)cnn1-c1ccccc1 [Example 60] | 0.43 | 2.15 | 0.17 | 0.93 | 0.79 | – | – | – | –
CCCCCCCC(=O)N=c1ccn(-c2ccccc2)nc1 [Example 8, 1,4-dihydro-4-octanoylimino-1-phenylpyridazine hydrochloride] | – | – | – | – | – | – | – | – | Q Increase [1]: 95.09; ED20 (blood pressure; Table 2, route not given): 0.055 mg/kg; R.A. (relative activity), hypertensive action (blood pressure; Table 2): 0.91; ED50 ([2]; Table 2, oral administration): 5.23 mg/kg; R.A. (relative activity), reserpine antagonism ([2]; Table 2): 0.14
O=C(N=c1ccn(-c2ccccc2)nc1)Oc1ccccc1 [Example 30, 1,4-dihydro-4-(phenoxycarbonyl)-imino-1-phenylpyridazine hydrochloride] | – | – | – | – | – | – | – | – | Q Increase [1]: 120.59; factor by which the hypertensive dose (ED 20%) is smaller than the antidepressive effective dose (ED 50%) ([1]; compounds of Table 2): 120; ED20 (blood pressure; Table 2, route not given): 0.034 mg/kg; R.A. (relative activity), hypertensive action (blood pressure; Table 2): 1.47; ED50 ([2]; Table 2, oral administration): 4.1 mg/kg; R.A. (relative activity), reserpine antagonism ([2]; Table 2): 0.18
COC(=O)[C@H]1[C@H]2C[C@@H]3c4[nH]c5cc(OC)ccc5c4CCN3C[C@H]2C[C@@H](OC(=O)c2cc(OC)c(OC)c(OC)c2)[C@@H]1OC [Reserpine, reference compound] | – | – | – | – | – | – | – | – | reduction of body temperature ([2]; 2.15 mg/kg s.c., 2 hours after administration, ambient 20° to 22° C., average): 3 °C
CCSC(=O)N=c1ccn(-c2ccccc2)nc1 [Example 36] | – | – | – | 2 | 0.37 | 6.33 | 0.316 | 0.16 | –
CC(=O)N=c1ccn(-c2ccccc2)nc1 [Example 1, 4-acetylimino-1,4-dihydro-1-phenylpyridazine hydrochloride] | – | – | – | 0.67 | 1.09 | 2.09 | 0.32 | 0.16 | –
O=C(N=c1ccn(-c2ccccc2)nc1)c1cc(Cl)cc(Cl)c1 [Example 15, 4-(3,5-dichlorobenzoyl)-imino-1,4-dihydro-1-phenylpyridazine] | < 0.27 | > 10 | < 0.04 | 2.7 | 0.27 | – | – | – | –
CNC(=S)N=c1ccn(-c2ccccc2)nc1 [Example 86, 1,4-dihydro-4-(methylthiocarbamyl)-imino-1-phenylpyridazine] | – | – | – | 2.1 | 0.35 | < 2.1 | > 1 | < 0.05 | –
COc1cc(=NC(C)=O)cnn1-c1ccccc1 [Example 48, 4-acetylimino-1,4-dihydro-6-methoxy-1-phenylpyridazine perchlorate] | 0.16 | 6.81 | 0.05 | 1.1 | 0.67 | – | – | – | –
CCNC(=O)N=c1ccn(-c2ccccc2)nc1 [Example 84, 1,4-dihydro-4-(ethylcarbamyl)-imino-1-phenylpyridazine] | – | – | – | 0.37 | 1.98 | 0.80 | 0.464 | 0.11 | –
O=C(N=c1ccn(-c2ccccc2)nc1)c1cccc(C(F)(F)F)c1 [Example 26] | 0.70 | 4.64 | 0.08 | 3.26 | 0.22 | – | – | – | –
COc1cc(=NC(=O)NCc2ccccc2)cnn1-c1ccccc1 [Example 74] | – | – | – | 8.45 | 0.09 | 1.82 | 4.64 | 0.01 | –
Cc1cccc(C(=O)N=c2ccn(-c3ccccc3)nc2)c1 [Example 23] | 0.98 | 1 | 0.37 | 0.98 | 0.74 | – | – | – | –
O=C(N=c1ccn(-c2ccccc2)nc1)c1ccc(Cl)cc1Cl [Example 20] | < 0.11 | > 10 | < 0.04 | 1.1 | 0.67 | – | – | – | –
CC(C)C(=O)N=c1ccn(-c2ccccc2)nc1 [Example 5, 1,4-dihydro-4-isobutyrylimino-1-phenylpyridazine hydrochloride] | – | – | – | 0.4 | 1.83 | 1.82 | 0.215 | 0.23 | –
O=C(N=c1ccn(-c2ccccc2)nc1)c1ccccc1Cl [Example 17] | – | – | – | – | – | – | – | – | Q Increase [1]: 60.00; ED20 (blood pressure; Table 2, route not given): 0.046 mg/kg; R.A. (relative activity), hypertensive action (blood pressure; Table 2): 1.09; ED50 ([2]; Table 2, oral administration): 2.76 mg/kg; R.A. (relative activity), reserpine antagonism ([2]; Table 2): 0.27
O=C(N=c1ccn(-c2ccccc2)nc1)c1ccc(Cl)c(Cl)c1 [Example 22] | 0.67 | 4.64 | 0.08 | 3.1 | 0.24 | – | – | – | –
COc1cc(=NC(=O)c2ccc(C)cc2)cnn1-c1ccccc1 [Example 78] | 0.07 | 10 | 0.04 | 0.73 | 1.00 | – | – | – | –
CCOc1cc(=NC(C)=O)cnn1-c1ccccc1 [Example 49] | 0.37 | 4.64 | 0.08 | 1.71 | 0.43 | – | – | – | –
